Measurements from PubChem BioAssay AID1259407 (Chemical Carcinogenesis Research Information System (CCRIS), 2018).
Calls of active or inactive are those of the source. No rule for the calls is given here.

Test system: CCRIS mutagenicity, Ames/micronucleus/aberration tests
Test: CCRIS mutagenicity studies
Details: Test System: AMES SALMONELLA TYPHIMURIUM, LIVER, Method: STANDARD PLATE

Measured: mutagenic call

O=C(O)C[C@H](NC(=O)COc1ccc(Cl)cc1Cl)C(=O)O
inactive: Strain/Indicator: TA97, Metabolic Activation: RAT, S-9, AROCLOR 1254 inactive; negative | Strain/Indicator: TA97, Metabolic Activation: WOODCHUCK, S-9, 3-METHYLCHOLANTHRENE inactive; negative | Strain/Indicator: TA98, Metabolic Activation: RAT, S-9, AROCLOR 1254 inactive; negative | Strain/Indicator: TA98, Metabolic Activation: WOODCHUCK, S-9, 3-METHYLCHOLANTHRENE inactive; negative | Strain/Indicator: TA100, Metabolic Activation: RAT, S-9, AROCLOR 1254 inactive; negative | Strain/Indicator: TA100, Metabolic Activation: WOODCHUCK, S-9, 3-METHYLCHOLANTHRENE inactive; negative | Strain/Indicator: TA1535, Metabolic Activation: RAT, S-9, AROCLOR 1254 inactive; negative | Strain/Indicator: TA1535, Metabolic Activation: WOODCHUCK, S-9, 3-METHYLCHOLANTHRENE inactive; negative | Strain/Indicator: TA1538, Metabolic Activation: RAT, S-9, AROCLOR 1254 inactive; negative | Strain/Indicator: TA1538, Metabolic Activation: WOODCHUCK, S-9, 3-METHYLCHOLANTHRENE inactive; negative
